According to patent US12491248B2, “Method for generating immunoregulatory cells in a blood-derived sample” (Therakos Development Limited, priority 2019, dated 2025):

Legend:
B16 melanoma cells = assay: Survival of melanoma-bearing mice treated with anti-PD1; type: in vivo; conditions: combined with anti-PD1, compared to anti-PD1 only
Protocol: FIG. 7: • (a) Treatment schedule: Mice were injected iv with B16 melanoma cells and afterwards treated with anti-PD1, prednisolone or ECP as indicated. • (b) Survival of mice injected iv with B16 melanoma cells and afterwards treated with anti-PD1, prednisolone or ECP.
To understand if the immunomodulatory effect of ECP was connected to a loss of anti-tumor activity we next treated melanoma bearing mice with anti-PD1 alone or in combination with the glucocorticoid prednisolone or ECP (FIG. 7A). We observed that prednisolone reduced the survival of melanoma-bearing mice compared to the group treated with anti-PD1 only (FIG. 7B).

[1] = test system: immune checkpoint inhibitor-related colitis; assay: Immunosuppressive drug treatment of the patient's colitis episodes before ECP; type: in vivo, human
Protocol: (§1) A patient was treated with ipilimumab and nivolumab for metastatic melanoma. […] Colitis was diagnosed based on macroscopic mucosal ulcerations and intraepithelial apoptosis and crypt loss identified in the biopsy (FIG. 1a,b). While dermatitis, thyroiditis and hepatitis resolved after stopping ipilimumab/nivolumab and corticosteroid treatment, the patient experienced three colitis episodes within the next 20 weeks (CTC-AE II-III°). These were treated with corticosteroids (in total 23 weeks prior to ECP), infliximab (2 single doses 18 and 15 weeks prior to ECP) and cyclosporine (14 weeks prior to ECP, FIG. 1a and Table 1).
The patient had their first episode of colitis 20 weeks prior to the start of ECP. At that time point they had been treated for 3 weeks with steroids for their previous immune checkpoint inhibitor-related hepatitis, thyroiditis and dermatitis. The colitis occurred during tapering of the steroids. Therefore, the steroid dose was increased and due to an insufficient response, infliximab 5 mg/kg BW was administered once. […] Upon steroid tapering, the patient experienced their second episode of colitis, 16 weeks prior to begin of ECP. They were treated with an increased dose of methylprednisolone and a second dose of infliximab. The diarrhea was refractory to this therapy and consequently cyclosporine A was added. […] Here, ECP treatment was initiated. […]

[2] = Adverse events of ipilimumab and nivolumab in the metastatic melanoma patient; type: in vivo, human; conditions: after two doses of ipilimumab and nivolumab
Protocol: as §1

C[C@]12C=CC(=O)C=C1CC[C@@H]1[C@@H]2[C@@H](O)C[C@@]2(C)[C@H]1CC[C@]2(O)C(=O)CO [prednisolone]
survival of melanoma-bearing mice (B16 melanoma cells): reduced

infliximab: anti-TNF antibody
diarrhea, second episode ([1]; increased dose of methylprednisolone and a second dose of infliximab): refractory | colitis symptoms, first episode ([1]; infliximab 5 mg/kg BW once, added to increased steroid dose): symptoms resolved

ipilimumab: antagonistic antibody directed against CTLA4
immune-related adverse events developed [2]: dermatitis, thyroiditis, hepatitis and colitis

nivolumab: antagonistic anti-PD-1 antibody
immune-related adverse events developed [2]: dermatitis, thyroiditis, hepatitis and colitis
